In US12570612B2, “Substituted nitrogen heterocyclic compound and anesthetic effect thereof” (priority 2019, dated 2026):
Where two headings read alike, the source gives them in different places.

What was measured:
Sprague-Dawley rats = assay: animal or person; settings: for ED50: LORR in rats, tail vein, brackets = 95% confidence limit; for Approximate therapeutic index / Minimal lethal dose: rats
Experimental: Adult male Sprague-Dawley rats (250-300 g) were selected for the experiment. […] The anesthesia effects of the compounds were assessed in rats using a LORR assay and a period >30 s was considered as an indicator of general anesthesia.

H295R cell line = assay: Adrenocortical function in vitro test: secretion of cortisol and corticosterone, Group B compounds; format: cell-based; settings: H295R cells; for EC50: 0.1-10000 nM, HPLC-MS/MS
[1] = Homo sapiens, NCI-H295R, read-out: EC50 (Corticosterone)
[2] = Homo sapiens, NCI-H295R, read-out: EC50 (Cortisol)
[3] = read-out: EC50 (Corticosterone)

| Structure (SMILES) | ED50 (Sprague-Dawley rats; Rattus norvegicus) [mg/kg] | Approximate therapeutic index (Sprague-Dawley rats) | Minimal lethal dose (Sprague-Dawley rats) [mg/kg] | Corticosterone as an indicator to determine the presence of inhibition (H295R cell line) | Cortisol as an indicator to determine the presence of inhibition (H295R cell line) | EC50 (H295R cell line; [1]) [nM] | EC50 (H295R cell line; [2]) [nM] | ED50 (Sprague-Dawley rats) | EC50 (H295R cell line; [3]) [nM] | EC50 (H295R cell line; read-out: EC50 (Cortisol)) [nM] |
| --- | --- | --- | --- | --- | --- | --- | --- | --- | --- | --- |
| C[C@H](c1ccccc1)n1nnc(I)c1C(=O)OC1CCC1 [Compound B132] | 0.5 to 1 | >16 | >12 | 0 | 0 | > 1000 | > 1000 |  |  |  |
| C=CC(CC)OC(=O)c1cnnn1[C@H](C)c1ccccc1 (some centres unmarked) [Compound B13] | 0.5 to 1 | >2 | >1 | 0 | 0 | > 1000 | > 1000 |  |  |  |
| CC(=O)C1=C(OC(=O)c2cnnn2[C@H](C)c2ccccc2)CCCC1 [Compound B15] | 0.5 to 1 | >9 | >9 | 0 | 0 | > 1000 | > 1000 |  |  |  |
| CCOC(=O)c1c(Br)nnn1[C@H](C)c1ccccc1 [Compound B99] |  | >16 | >8 | 0 | 0 |  |  | A (A indicates that the measured ED50 is in the range of 0.04-0.50 mg/kg (including 0.04 and 0.50 mg/kg)) | > 3000 | > 3000 |
| C=CC1(OC(=O)c2c(F)nnn2[C@H](C)c2ccccc2)COC1 [Compound B51] | 1 to 2 | >12 | >14 | 0 | 0 | > 1000 | > 1000 |  |  |  |
| C[C@H](c1ccccc1)n1nnc(Cl)c1C(=O)OC1CCC1 [Compound B70] |  | >2 | >15 | 0 | 0 |  |  | D (D indicates that the measured ED50 is in the range of 2.00-10.00 mg/kg (excluding 2.00 mg/kg, including 10.00 mg/kg)) | > 1000 | > 1000 |
| CC=CC1(OC(=O)c2cnnn2C(C)c2ccccc2)COC1 (mixture of isomers) [Compound B21] |  | >11 | >8 | 0 | 0 |  |  | B (B indicates that the measured ED50 is in the range of 0.50-1.00 mg/kg (excluding 0.50 mg/kg, including 1.00 mg/kg)) | > 100 | > 100 |
| C[C@H](c1ccccc1)n1nnc(Br)c1C(=O)OC(C)(C)C [Compound B110] |  | >7 | >16 | 0 | 0 |  |  | D (D indicates that the measured ED50 is in the range of 2.00-10.00 mg/kg (excluding 2.00 mg/kg, including 10.00 mg/kg)) | > 3000 | > 3000 |
| C=CCOC(=O)c1cnnn1[C@H](C)c1ccccc1 [Compound B10] | 0.5 to 1 | >16 | >11 | 0 | 0 | > 100 | > 100 |  |  |  |
| C[C@H](c1ccccc1)n1nnc(Br)c1C(=O)OC1CC1 [Compound B116] | 1 to 2 | >9 | >12 | 0 | 0 | > 3000 | > 3000 |  |  |  |
| CCOC(=O)c1c(I)nnn1[C@H](C)c1ccccc1 [Compound B127] | 0.5 to 1 | >23 | >16 | 0 | 0 | > 3000 | > 3000 |  |  |  |
| CCOC(=O)c1c(Cl)nnn1[C@H](C)c1ccccc1 [Compound B65] | 0.5 to 1 | >13 | >9 | 0 | 0 | > 1000 | > 1000 |  |  |  |
| C=C=CC1(OC(=O)c2c(Br)nnn2[C@H](C)c2ccccc2)COC1 [Compound B101] |  | >7 | >13 | 0 | 0 |  |  | C (C indicates that the measured ED50 is in the range of 1.00-2.00 mg/kg (excluding 1.00 mg/kg, including 2.00 mg/kg)) | > 1000 | > 1000 |
| COC(=O)C1=C(OC(=O)c2c(F)nnn2[C@H](C)c2ccccc2)CCC1 [Compound B36] | 0.5 to 1 | >7 | >5 | 0 | 0 | > 1000 | > 1000 |  |  |  |
| CC(C)OC(=O)c1c(Br)nnn1[C@H](C)c1ccccc1 [Compound B115] | 0.5 to 1 | >25 | >18 | 0 | 0 | > 3000 | > 3000 |  |  |  |
| CC(C)OC(=O)c1cnnn1[C@H](C)c1ccccc1 [Compound B17] | 0.04 to 0.5 | >56 | >16 | 0 | 0 | > 1000 | > 1000 |  |  |  |
| CO[C@H]1C[C@@H](OC(=O)c2cnnn2[C@H](C)c2ccccc2)C1 [Compound B8] | 0.5 to 1 | >9 | >8 | 0 | 0 | > 1000 | > 1000 |  |  |  |
| C[C@H](c1ccccc1)n1nnc(I)c1C(=O)OC1(C)COC1 [Compound B140] | 10 to 20 | >2 | >30 | 0 | 0 | > 1000 | > 1000 |  |  |  |
| C[C@H](c1ccccc1)n1nnc(I)c1C(=O)OC1CC1 [Compound B144] | 10 to 20 | >2 | >24 | 0 | 0 | > 1000 | > 1000 |  |  |  |
| COC(=O)C1=C(OC(=O)c2cnnn2[C@H](C)c2ccccc2)CCCC1 [Compound B30] | 0.5 to 1 | >10 | >10 | 0 | 0 | > 1000 | > 1000 |  |  |  |
| C[C@H](c1ccccc1)n1nnc(Br)c1C(=O)OC1CCC1 [Compound B104] |  | >10 | >11 | 0 | 0 |  |  | C (C indicates that the measured ED50 is in the range of 1.00-2.00 mg/kg (excluding 1.00 mg/kg, including 2.00 mg/kg)) | > 3000 | > 3000 |
| C=C=CC1(OC(=O)c2cnnn2[C@H](C)c2ccccc2)CCCCC1 [Compound B11] |  | >8 | >6 | 0 | 0 |  |  | B (B indicates that the measured ED50 is in the range of 0.50-1.00 mg/kg (excluding 0.50 mg/kg, including 1.00 mg/kg)) | > 1000 | > 1000 |
| C[C@H](c1ccccc1)n1nnc(I)c1C(=O)OCC1CC1 [Compound B133] | 0.5 to 1 | >20 | >14 | 0 | 0 | > 1000 | > 1000 |  |  |  |
| C[C@H](c1ccccc1)n1nncc1C(=O)OCC1CC1 [Compound B7] | 0.5 to 1 | >31 | >24 | 0 | 0 | > 100 | > 100 |  |  |  |
| CO[C@H]1C[C@@H](OC(=O)c2c(F)nnn2[C@H](C)c2ccccc2)C1 [Compound B40] | 0.5 to 1 | >6 | >6 | 0 | 0 | > 100 | > 100 |  |  |  |
| CCSC(=O)c1c(Br)nnn1[C@H](C)c1ccccc1 [Compound B120] | 0.5 to 1 | >21 | >15 | 0 | 0 | > 1000 | > 1000 |  |  |  |
